Assays:
[1] = biological target: Tyrosine-protein kinase ABL1 (Homo sapiens) (UniProt P00519); details: Compound concentration 1000.0 nM
[2] = biological target: Activin receptor type-2B (Homo sapiens) (UniProt Q13705); details: Compound concentration 1000.0 nM
[3] = biological target: RAC-beta serine/threonine-protein kinase (Homo sapiens) (UniProt P31751); details: Compound concentration 1000.0 nM
[4] = biological target: Mitogen-activated protein kinase kinase kinase 6 (Homo sapiens) (UniProt O95382); details: Compound concentration 1000.0 nM
[5] = biological target: Aurora kinase B (Homo sapiens) (UniProt Q96GD4); details: Compound concentration 1000.0 nM
[6] = biological target: Bone morphogenetic protein receptor type-1A (Homo sapiens) (UniProt P36894); details: Compound concentration 1000.0 nM
[7] = test system: Serine/threonine-protein kinase B-raf (Homo sapiens), P15056 [V600E]; details: Compound concentration 1000.0 nM
[8] = biological target: Calcium/calmodulin-dependent protein kinase type 1G (Homo sapiens) (UniProt Q96NX5); details: Compound concentration 1000.0 nM
[9] = biological target: Calcium/calmodulin-dependent protein kinase type II subunit alpha (Homo sapiens) (UniProt Q9UQM7); details: Compound concentration 1000.0 nM
[10] = biological target: Calcium/calmodulin-dependent protein kinase kinase 2 (Homo sapiens) (UniProt Q96RR4); details: Compound concentration 1000.0 nM
[11] = biological target: Cyclin-dependent kinase 3 (Homo sapiens) (UniProt Q00526); details: Compound concentration 1000.0 nM
[12] = biological target: Cyclin-dependent kinase 9 (Homo sapiens) (UniProt P50750); details: Compound concentration 1000.0 nM
[13] = biological target: Cyclin-dependent kinase-like 1 (Homo sapiens) (UniProt Q00532); details: Compound concentration 1000.0 nM
[14] = biological target: Cyclin-dependent kinase-like 2 (Homo sapiens) (UniProt Q92772); details: Compound concentration 1000.0 nM
[15] = biological target: Epithelial discoidin domain-containing receptor 1 (Homo sapiens) (UniProt Q08345); details: Compound concentration 1000.0 nM
[16] = biological target: Serine/threonine-protein kinase 17A (Homo sapiens) (UniProt Q9UEE5); details: Compound concentration 1000.0 nM
[17] = biological target: Dual specificity tyrosine-phosphorylation-regulated kinase 1A (Homo sapiens) (UniProt Q13627); details: Compound concentration 1000.0 nM
[18] = test system: Epidermal growth factor receptor (Homo sapiens), P00533 [G719C]; details: Compound concentration 1000.0 nM
[19] = test system: Epidermal growth factor receptor (Homo sapiens), P00533 [L861Q]; details: Compound concentration 1000.0 nM
[20] = biological target: Ephrin type-A receptor 2 (Homo sapiens) (UniProt P29317); details: Compound concentration 1000.0 nM
[21] = biological target: Ephrin type-A receptor 3 (Homo sapiens) (UniProt P29320); details: Compound concentration 1000.0 nM
[22] = biological target: Ephrin type-B receptor 6 (Homo sapiens) (UniProt O15197); details: Compound concentration 1000.0 nM
[23] = biological target: Tyrosine-protein kinase Fer (Homo sapiens) (UniProt P16591); details: Compound concentration 1000.0 nM
[24] = biological target: Fibroblast growth factor receptor 3 (Homo sapiens) (UniProt P22607); details: Compound concentration 1000.0 nM
[25] = biological target: Rhodopsin kinase GRK1 (Homo sapiens) (UniProt Q15835); details: Compound concentration 1000.0 nM
[26] = biological target: Mitogen-activated protein kinase kinase kinase kinase 1 (Homo sapiens) (UniProt Q92918); details: Compound concentration 1000.0 nM
[27] = biological target: Serine/threonine-protein kinase MAK (Homo sapiens) (UniProt P20794); details: Compound concentration 1000.0 nM
[28] = biological target: Mitogen-activated protein kinase kinase kinase kinase 3 (Homo sapiens) (UniProt Q8IVH8); details: Compound concentration 1000.0 nM
[29] = biological target: Mitogen-activated protein kinase kinase kinase kinase 5 (Homo sapiens) (UniProt Q9Y4K4); details: Compound concentration 1000.0 nM
[30] = biological target: Serine/threonine-protein kinase MARK1 (Homo sapiens) (UniProt Q9P0L2); details: Compound concentration 1000.0 nM
[31] = test system: Hepatocyte growth factor receptor (Homo sapiens), P08581 [M1250T]; details: Compound concentration 1000.0 nM
[32] = biological target: Serine/threonine-protein kinase 26 (Homo sapiens) (UniProt Q9P289); details: Compound concentration 1000.0 nM
[33] = biological target: Serine/threonine-protein kinase Nek5 (Homo sapiens) (UniProt Q6P3R8); details: Compound concentration 1000.0 nM
[34] = biological target: Serine/threonine-protein kinase PAK 2 (Homo sapiens) (UniProt Q13177); details: Compound concentration 1000.0 nM
[35] = biological target: Serine/threonine-protein kinase PAK 4 (Homo sapiens) (UniProt O96013); details: Compound concentration 1000.0 nM
[36] = test system: Phosphatidylinositol 4,5-bisphosphate 3-kinase catalytic subunit alpha isoform (Homo sapiens), P42336 [C420R]; details: Compound concentration 1000.0 nM
[37] = test system: Phosphatidylinositol 4,5-bisphosphate 3-kinase catalytic subunit alpha isoform (Homo sapiens), P42336 [I800L]; details: Compound concentration 1000.0 nM
[38] = biological target: Serine/threonine-protein kinase pim-3 (Homo sapiens) (UniProt Q86V86); details: Compound concentration 1000.0 nM
[39] = biological target: Serine/threonine-protein kinase SIK3 (Homo sapiens) (UniProt Q9Y2K2); details: Compound concentration 1000.0 nM
[40] = biological target: Ribosomal protein S6 kinase alpha-5 (Homo sapiens) (UniProt O75582); details: Compound concentration 1000.0 nM
[41] = biological target: Serine/threonine-protein kinase 33 (Homo sapiens) (UniProt Q9BYT3); details: Compound concentration 1000.0 nM
[42] = biological target: Serine/threonine-protein kinase ULK1 (Homo sapiens) (UniProt O75385); details: Compound concentration 1000.0 nM
[43] = biological target: Wee1-like protein kinase 2 (Homo sapiens) (UniProt P0C1S8); details: Compound concentration 1000.0 nM
[44] = biological target: Alpha-1B adrenergic receptor (Homo sapiens) (UniProt P35368); details: Compound concentration 10.0 uM
[45] = biological target: Alpha-1D adrenergic receptor (Homo sapiens) (UniProt P25100); details: Compound concentration 10.0 uM
Alpha-1D adrenergic receptor (Homo sapiens), sequence (P25100 whole entry): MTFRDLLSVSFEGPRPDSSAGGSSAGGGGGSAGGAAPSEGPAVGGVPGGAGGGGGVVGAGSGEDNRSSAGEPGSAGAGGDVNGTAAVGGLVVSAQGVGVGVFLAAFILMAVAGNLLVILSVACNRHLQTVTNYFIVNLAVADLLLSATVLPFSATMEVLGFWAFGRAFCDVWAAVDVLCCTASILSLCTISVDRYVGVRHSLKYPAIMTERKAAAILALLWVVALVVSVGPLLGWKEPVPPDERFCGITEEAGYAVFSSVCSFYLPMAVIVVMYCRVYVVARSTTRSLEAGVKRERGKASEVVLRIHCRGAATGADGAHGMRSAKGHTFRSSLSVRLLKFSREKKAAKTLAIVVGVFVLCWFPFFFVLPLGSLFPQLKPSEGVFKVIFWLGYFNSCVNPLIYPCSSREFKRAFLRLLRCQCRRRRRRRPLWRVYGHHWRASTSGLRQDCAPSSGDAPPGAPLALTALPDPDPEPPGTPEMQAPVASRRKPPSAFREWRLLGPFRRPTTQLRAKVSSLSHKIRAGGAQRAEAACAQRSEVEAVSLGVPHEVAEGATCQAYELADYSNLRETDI

Cyclin-dependent kinase-like 1 (Homo sapiens), sequence (Q00532 whole entry): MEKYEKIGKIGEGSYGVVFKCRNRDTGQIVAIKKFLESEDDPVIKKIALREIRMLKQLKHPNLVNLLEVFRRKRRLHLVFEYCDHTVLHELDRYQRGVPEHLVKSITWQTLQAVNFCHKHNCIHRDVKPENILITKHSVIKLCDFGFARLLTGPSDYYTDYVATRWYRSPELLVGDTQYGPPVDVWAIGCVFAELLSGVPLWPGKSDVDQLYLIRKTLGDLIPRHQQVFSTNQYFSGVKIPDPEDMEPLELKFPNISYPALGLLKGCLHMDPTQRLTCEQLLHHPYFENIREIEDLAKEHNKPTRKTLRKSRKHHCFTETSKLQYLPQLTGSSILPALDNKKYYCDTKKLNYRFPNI
Fibroblast growth factor receptor 3 (Homo sapiens), sequence (P22607 23-806 limits assumed): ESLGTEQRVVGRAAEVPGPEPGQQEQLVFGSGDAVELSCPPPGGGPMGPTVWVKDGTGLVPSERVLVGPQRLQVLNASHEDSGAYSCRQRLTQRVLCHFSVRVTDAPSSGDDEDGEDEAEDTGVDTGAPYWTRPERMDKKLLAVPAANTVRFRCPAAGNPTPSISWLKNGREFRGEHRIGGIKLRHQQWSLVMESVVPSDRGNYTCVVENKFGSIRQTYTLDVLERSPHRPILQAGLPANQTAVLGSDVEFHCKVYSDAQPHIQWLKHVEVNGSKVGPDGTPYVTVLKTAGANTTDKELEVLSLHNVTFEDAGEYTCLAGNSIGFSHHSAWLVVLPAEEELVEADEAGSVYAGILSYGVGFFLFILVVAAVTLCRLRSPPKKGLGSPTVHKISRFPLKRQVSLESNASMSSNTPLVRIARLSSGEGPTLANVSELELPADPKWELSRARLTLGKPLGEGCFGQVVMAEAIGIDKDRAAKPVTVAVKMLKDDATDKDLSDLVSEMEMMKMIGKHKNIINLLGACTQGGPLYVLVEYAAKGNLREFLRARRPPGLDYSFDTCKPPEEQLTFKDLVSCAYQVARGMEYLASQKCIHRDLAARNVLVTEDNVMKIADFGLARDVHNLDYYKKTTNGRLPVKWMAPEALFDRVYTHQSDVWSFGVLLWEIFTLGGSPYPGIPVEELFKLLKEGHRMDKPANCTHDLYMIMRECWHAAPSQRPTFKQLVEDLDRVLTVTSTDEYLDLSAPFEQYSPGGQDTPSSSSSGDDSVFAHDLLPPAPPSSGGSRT
Ephrin type-A receptor 2 (Homo sapiens), sequence (P29317 whole entry): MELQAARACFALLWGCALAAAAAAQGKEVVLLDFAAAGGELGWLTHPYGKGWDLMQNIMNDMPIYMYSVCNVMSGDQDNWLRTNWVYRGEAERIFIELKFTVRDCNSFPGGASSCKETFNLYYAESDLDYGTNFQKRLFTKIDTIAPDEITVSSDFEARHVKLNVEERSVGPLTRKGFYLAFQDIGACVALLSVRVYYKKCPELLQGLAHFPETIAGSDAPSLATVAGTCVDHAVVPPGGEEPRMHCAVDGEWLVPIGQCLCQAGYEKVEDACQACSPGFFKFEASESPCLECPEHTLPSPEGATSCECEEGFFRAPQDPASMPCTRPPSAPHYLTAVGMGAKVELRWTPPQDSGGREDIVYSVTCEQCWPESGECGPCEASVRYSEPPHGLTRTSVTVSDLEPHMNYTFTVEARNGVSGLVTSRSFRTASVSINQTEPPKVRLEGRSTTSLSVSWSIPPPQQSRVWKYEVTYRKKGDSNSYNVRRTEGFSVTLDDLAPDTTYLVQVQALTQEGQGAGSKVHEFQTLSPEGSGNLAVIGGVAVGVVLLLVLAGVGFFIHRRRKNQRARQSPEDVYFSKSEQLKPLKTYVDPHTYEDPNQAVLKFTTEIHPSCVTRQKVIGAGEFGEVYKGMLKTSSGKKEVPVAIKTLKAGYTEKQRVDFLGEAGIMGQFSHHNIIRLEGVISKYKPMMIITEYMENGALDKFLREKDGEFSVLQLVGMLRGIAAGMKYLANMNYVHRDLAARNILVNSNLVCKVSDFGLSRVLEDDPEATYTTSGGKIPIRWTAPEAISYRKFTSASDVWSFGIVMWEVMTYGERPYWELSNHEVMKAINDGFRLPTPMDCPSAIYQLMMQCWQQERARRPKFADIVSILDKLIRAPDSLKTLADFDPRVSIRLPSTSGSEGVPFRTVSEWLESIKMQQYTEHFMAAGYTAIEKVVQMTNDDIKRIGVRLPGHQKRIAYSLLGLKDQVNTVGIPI
Activin receptor type-2B (Homo sapiens), sequence (Q13705 whole entry): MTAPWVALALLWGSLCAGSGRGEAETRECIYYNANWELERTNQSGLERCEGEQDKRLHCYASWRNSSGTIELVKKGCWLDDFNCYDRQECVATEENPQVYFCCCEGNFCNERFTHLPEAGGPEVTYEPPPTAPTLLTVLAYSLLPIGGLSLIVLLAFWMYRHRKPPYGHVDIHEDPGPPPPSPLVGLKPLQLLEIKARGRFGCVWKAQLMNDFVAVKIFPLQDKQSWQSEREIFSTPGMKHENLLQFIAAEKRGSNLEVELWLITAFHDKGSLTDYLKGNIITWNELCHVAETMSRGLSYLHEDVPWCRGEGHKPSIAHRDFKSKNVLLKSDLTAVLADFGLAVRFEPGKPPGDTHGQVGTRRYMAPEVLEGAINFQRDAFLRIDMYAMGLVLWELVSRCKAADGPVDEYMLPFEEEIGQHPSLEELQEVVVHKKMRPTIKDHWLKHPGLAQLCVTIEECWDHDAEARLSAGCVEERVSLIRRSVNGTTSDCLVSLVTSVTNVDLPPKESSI
Serine/threonine-protein kinase ULK1 (Homo sapiens), sequence (O75385 whole entry): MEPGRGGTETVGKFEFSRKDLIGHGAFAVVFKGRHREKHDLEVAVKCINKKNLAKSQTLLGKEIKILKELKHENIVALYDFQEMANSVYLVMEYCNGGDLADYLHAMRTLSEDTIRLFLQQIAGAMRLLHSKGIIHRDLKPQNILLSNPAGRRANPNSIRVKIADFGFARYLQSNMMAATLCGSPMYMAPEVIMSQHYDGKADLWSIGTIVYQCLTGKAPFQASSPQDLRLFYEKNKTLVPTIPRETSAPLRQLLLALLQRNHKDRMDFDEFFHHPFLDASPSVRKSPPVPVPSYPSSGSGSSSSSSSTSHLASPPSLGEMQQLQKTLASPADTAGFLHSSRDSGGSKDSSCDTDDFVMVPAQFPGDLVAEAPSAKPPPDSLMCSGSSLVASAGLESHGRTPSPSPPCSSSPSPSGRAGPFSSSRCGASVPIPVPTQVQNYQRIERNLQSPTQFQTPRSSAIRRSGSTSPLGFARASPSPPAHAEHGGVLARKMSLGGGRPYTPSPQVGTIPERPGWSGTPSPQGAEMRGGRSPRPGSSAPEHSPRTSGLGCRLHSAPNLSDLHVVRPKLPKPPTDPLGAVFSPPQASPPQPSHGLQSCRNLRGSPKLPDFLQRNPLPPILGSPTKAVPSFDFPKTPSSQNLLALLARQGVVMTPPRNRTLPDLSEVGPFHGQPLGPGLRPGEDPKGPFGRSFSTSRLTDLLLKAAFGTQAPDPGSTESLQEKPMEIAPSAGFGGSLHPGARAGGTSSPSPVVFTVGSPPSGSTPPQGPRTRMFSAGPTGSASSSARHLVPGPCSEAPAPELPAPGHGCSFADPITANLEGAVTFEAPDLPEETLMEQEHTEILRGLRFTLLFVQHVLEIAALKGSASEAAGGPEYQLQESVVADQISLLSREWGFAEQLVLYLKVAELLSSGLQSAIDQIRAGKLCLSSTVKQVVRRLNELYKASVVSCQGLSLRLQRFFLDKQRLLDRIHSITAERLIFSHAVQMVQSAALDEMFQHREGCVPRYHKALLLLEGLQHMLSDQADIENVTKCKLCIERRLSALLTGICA
Serine/threonine-protein kinase MAK (Homo sapiens), sequence (P20794 whole entry): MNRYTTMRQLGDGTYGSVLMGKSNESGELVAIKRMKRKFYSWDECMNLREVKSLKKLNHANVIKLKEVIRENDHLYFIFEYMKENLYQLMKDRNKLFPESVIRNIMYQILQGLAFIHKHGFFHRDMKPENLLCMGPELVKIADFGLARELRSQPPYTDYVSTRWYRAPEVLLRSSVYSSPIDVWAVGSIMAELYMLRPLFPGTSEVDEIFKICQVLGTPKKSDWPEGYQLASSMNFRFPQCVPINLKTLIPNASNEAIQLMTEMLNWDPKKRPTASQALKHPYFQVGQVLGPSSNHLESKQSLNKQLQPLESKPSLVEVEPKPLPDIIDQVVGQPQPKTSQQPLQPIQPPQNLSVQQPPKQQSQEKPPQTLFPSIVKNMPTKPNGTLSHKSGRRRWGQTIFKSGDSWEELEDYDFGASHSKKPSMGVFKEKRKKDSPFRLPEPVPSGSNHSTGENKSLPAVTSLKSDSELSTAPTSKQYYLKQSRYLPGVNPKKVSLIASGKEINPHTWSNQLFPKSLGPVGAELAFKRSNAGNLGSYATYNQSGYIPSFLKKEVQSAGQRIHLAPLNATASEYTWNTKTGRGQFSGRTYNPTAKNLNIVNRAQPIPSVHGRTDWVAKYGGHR

CO[C@@H](C)c1c(Nc2ccc([C@H](N(C)C(=O)C3CCS(=O)(=O)CC3)C(F)(F)F)cc2)cnc2cc(Cl)nn12 [NVS-MALT1]
inactive: residual activity [1] 59% | residual activity [2] 66% | residual activity [3] 99% | residual activity [4] 100% | residual activity [5] 91% | residual activity [6] 71% | residual activity [7] 96% | residual activity [8] 100% | residual activity [9] 83% | residual activity [10] 80% | residual activity [11] 90% | residual activity [12] 85% | residual activity [13] 57% | residual activity [14] 90% | residual activity [15] 99% | residual activity [16] 87% | residual activity [17] 75% | residual activity [18] 100% | residual activity [19] 100% | residual activity [20] 100% | residual activity [21] 97% | residual activity [22] 100% | residual activity [23] 88% | residual activity [24] 88% | residual activity [25] 82% | residual activity [26] 100% | residual activity [27] 100% | residual activity [28] 99% | residual activity [29] 88% | residual activity [30] 69% | residual activity [31] 92% | residual activity [32] 100% | residual activity [33] 84% | residual activity [34] 76% | residual activity [35] 95% | residual activity [36] 93% | residual activity [37] 55% | residual activity [38] 86% | residual activity [39] 100% | residual activity [40] 88% | residual activity [41] 51% | residual activity [42] 100% | residual activity [43] 88% | inhibition [44] 27.6% | inhibition [45] -6.69%

CO[C@@H](C)c1c(Nc2ccc([C@@H](N(C)C(=O)C3CCS(=O)(=O)CC3)C(F)(F)F)cc2)cnc2cc(Cl)nn12 [NVS-MALT1-C]
inactive: residual activity [1] 59% | residual activity [2] 100% | residual activity [3] 91% | residual activity [4] 100% | residual activity [5] 74% | residual activity [6] 100% | residual activity [7] 85% | residual activity [8] 100% | residual activity [9] 83% | residual activity [10] 100% | residual activity [11] 88% | residual activity [12] 100% | residual activity [13] 74% | residual activity [14] 88% | residual activity [15] 100% | residual activity [16] 90% | residual activity [17] 92% | residual activity [18] 98% | residual activity [19] 100% | residual activity [20] 83% | residual activity [21] 90% | residual activity [22] 100% | residual activity [23] 89% | residual activity [24] 90% | residual activity [25] 86% | residual activity [26] 100% | residual activity [27] 100% | residual activity [28] 94% | residual activity [29] 100% | residual activity [30] 81% | residual activity [31] 100% | residual activity [32] 100% | residual activity [33] 88% | residual activity [34] 81% | residual activity [35] 100% | residual activity [36] 93% | residual activity [37] 71% | residual activity [38] 97% | residual activity [39] 100% | residual activity [40] 70% | residual activity [41] 51% | residual activity [42] 100% | residual activity [43] 100% | inhibition [44] 5.97% | inhibition [45] 3.2%
